Each structure is given as a SMILES string.

For this assay, the target named is T1, ATP-dependent MurE ligase (Mycobacterium tuberculosis, UniProt P9WJL3).
T1 sequence (P9WJL3 1-535): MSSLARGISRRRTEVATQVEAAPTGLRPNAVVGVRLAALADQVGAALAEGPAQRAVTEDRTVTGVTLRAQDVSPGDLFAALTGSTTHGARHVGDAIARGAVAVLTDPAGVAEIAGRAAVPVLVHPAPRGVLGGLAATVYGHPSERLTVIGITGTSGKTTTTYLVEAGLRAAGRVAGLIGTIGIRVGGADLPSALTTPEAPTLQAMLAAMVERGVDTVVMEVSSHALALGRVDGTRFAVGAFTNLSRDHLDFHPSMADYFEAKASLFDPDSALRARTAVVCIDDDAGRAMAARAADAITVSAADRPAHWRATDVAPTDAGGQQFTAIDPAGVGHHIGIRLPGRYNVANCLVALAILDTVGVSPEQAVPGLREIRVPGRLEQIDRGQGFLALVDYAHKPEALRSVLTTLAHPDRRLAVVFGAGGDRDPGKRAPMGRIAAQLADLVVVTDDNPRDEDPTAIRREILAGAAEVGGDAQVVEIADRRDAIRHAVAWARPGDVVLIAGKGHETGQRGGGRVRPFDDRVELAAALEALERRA
In words: biochemical.

Broadly, the IC50 is the midpoint of a concentration-inhibition curve. Low values mean higher potency, high ones lower potency. `C=CC(C)(C)c1c(OC)oc(-c2ccccc2)cc1=O` [compound 2, hyperenone A] had an IC50 of 320 µM.
